In US10357537B2, “Cyclotides as immunosuppressive agents” (priority 2011, dated 2019):
Bridge positions count the residues as written; N and C are the ends. Peptide text beside a SMILES is read from it.

Key:
[1] = system: activated human primary PBMC; experiment: Anti-proliferative CFSE cell division assay on anti-CD3/CD28-activated PBMC; conditions: CFSE, flow cytometry; extract 50-100 μg/mL, cyclotides 1.8-14 μM, melittin 0.05-1.6 μM
In short: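 Healthy-donor PBMC were CFSE-labelled (5 μM, 10 min, 37° C.), activated with anti-CD3/CD28 and cultured in RPMI 1640 with 10% FCS at 37° C. with the cyclotide mutants/variants. Proliferation was read as cell division by flow-cytometric CFSE histogram analysis.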

[2] = system: TNF-alpha production of activated PBMCs; experiment: TNF-alpha secretion of PBMC, ELISA-based FACS; type: cell-based, human; conditions: 24 h + 6 h PMA/ionomycin; T20K 4 μM, CsA 5 μg/mL
Method: FIG. 15. […] Untreated cells were used as control. Following 24 h or 36 h of cultivation, the cells were restimulated with PMA/Ionomycin for further 6 hour. […] The data are presented as mean and standard deviation (SD) of three independent experiments.
Activated cells were resuspended in 50 μl of medium, transferred into a 96-well plate and treated with 10 μg/ml PHA-L. After incubation for 24 h cells were re-stimulated with PMA (50 ng/ml) und ionomycin (500 ng/ml) for 6 h. Next, the cells were transferred into Eppendorf tubes, centrifuged (5 min, 3000 RPM, 20° C.) und 50 μl of the supernatant was again transferred into new tubes and stored at −20° C. Production of cytokines was measured and quantified using the FlowCytomix™ kit according to manufacturer's instructions.
Therefore it is of interest to determine whether cyclotides only have anti-proliferative effects or also affect the effector function of T-lymphocytes, which would directly relate to changes in the IFN-gamma and TNF-alpha production. Therefore, the production of both cytokines of cyclotide-treated, activated PBMCs at an early time point after PBMC activation was tested.

human primary T-cells = experiment: Ca2+ release, Fura-2; type: cell-based; conditions: T20K 4 μM
Method: FIG. 17. Ca^2+ release in human Jurkat and T-cells. Jurkat cells (A) and T-cells (B) 1×10^6 were loaded with 1 μM Fura-2 and 0.02% Puronic F-127 for 30 minutes at 37° C. Cells were centrifuged for 5 minutes at 1200 rpm and resuspended in media [RPMI 1640 with 10% FCS, penicillin (100 U/mL) and streptomycin ([…])]. 100 μL of cell suspension were transferred to a black 96-well plate with a clear flat-bottom. Briefly before analysis the fluorometer Synergy H4 (BioTek) was tempered to 37° C. The fluorescence time course was then measured with: extinction 340/380 nm and emission 510 nm in 30 seconds intervals, continuously shaking. Ca^2+ influx was initiated by adding compounds to the cells (illustrated by the arrow). To receive maximum Ca^2+ release cells were stimulated with PMA (50 ng/mL) and Ionomycin (500 ng/mL) and T-cells additionally with PHA-L (10 μg/mL). For lowest Ca^2+ levels, cells remained untreated.
Jurkat cells T-cells were treated as described for FIG. 17, supra.

[3] = system: EAE-induced C57BL/6J mice; experiment: EAE in C57BL/6J mice treated with T20K, clinical score; type: in vivo, mouse
Method: FIG. 19. Effect on clinical EAE score. After induction of EAE, mice treated with T20K and naïve mice were scored every second day, starting at day 10.
Mice (n=10/group) were treated on day (−7), 0, 7 with 200 μg/100 μL/mouse T20K solubilized in sterile PBS intraperitoneally (i.p.), as indicated in the figure. On day 0 they were immunized subcutaneously with myelin oligodendrocyte glycoprotein (MOG35-55, 1 mg/mL) and complete Freud's adjuvant (CFA, 10 mg/mL) mixed at equal parts. Therefore 70 μL were injected into the left and right flank. Additionally mice received 100 μL pertussis toxin (2 μg/mL) i.p. on day 0 and again on day 2. Beginning at day 10 mice were scored every second day. Weight was also measured at day (−7), 0, 7 and on the same day during scoring.

NFATc1 in human T-cells = experiment: Western blot for NFATc1; type: cell-based; conditions: CsA 5 μg/mL, T20K 4 μM; compared to V10K, PHA-L, PMA/Ionomycin
Method: (§1) FIG. 23. Effect of cyclotides on protein expression of NFAT1c. […] But instead of stimulating with PHA-L and PMA/ionomycin, one part of the cells was stimulated with PHA-L (10 μg/mL) and the other with PMA (50 ng/mL)/ionomycin (500 ng/mL) over night. […] Splenic T-cells isolated from naïve mouse group were stimulated as described above.
(§2) Human T-cells provided by CCRI from A. Dohnal, PhD were stimulated according to the protocol for IL2 release described above. Stimulated cells were resuspended in TBS and mixed at equal parts with sample buffer and heated for five minutes at 95° C. A sodium dodecyl sulfate polyacrylamide gel was prepared to separate the proteins achieved from the lysed T-cells. After electrophoresis proteins were transferred from the gel to a membrane. After blocking the membrane with BSA 3% in TBST over night at 4° C., the first antibody mouse anti-NFATc1 was incubated for 2 hours at room temperature. After five times washing with TBST 0.1% Tween, the membrane was incubated with the second antibody anit-mouse IgG HRP for one hour at room temperature. The membrane was dried and treated with West Pico or West Femto Super Signal Solution according to the manufactures protocol to evaluate the chemo-luminescence signal.

[4] = system: NFATc1 in splenic T-cells of naive mouse group; experiment: Western blot for NFATc1; type: cell-based; conditions: compared to V10K and MOG
Method: as §1, §2

SMILES: CC(C)C[C@@H]1NC(=O)CNC(=O)[C@H](CC(N)=O)NC(=O)[C@H](CCCNC(=N)N)NC(=O)[C@H]([C@@H](C)O)NC(=O)[C@@H]2CSSC[C@@H]3NC(=O)[C@H]([C@@H](C)O)NC(=O)CNC(=O)CNC(=O)[C@H](C(C)C)NC(=O)[C@@H]4CSSC[C@H](NC(=O)[C@H](CCCCN)NC(=O)[C@H](CSSC[C@H](NC(=O)[C@H](C(C)C)NC(=O)[C@@H]5CCCN5C1=O)C(=O)NCC(=O)N[C@@H](CCC(=O)O)C(=O)N[C@@H]([C@@H](C)O)C(=O)N4)NC(=O)CNC(=O)[C@@H]1CCCN1C(=O)[C@H]([C@@H](C)O)NC(=O)[C@H](CC(N)=O)NC3=O)C(=O)N[C@@H](CO)C(=O)N[C@@H](Cc1c[nH]c3ccccc13)C(=O)N1CCC[C@H]1C(=O)N[C@@H](C(C)C)C(=O)N2 [Kalata T20K] (cyclo(CGETCVGGTCNTPGCKCSWPVCTRNGLPV); disulfide 1-15, 5-17, 10-22 (inferred); ring closure inferred)
- cell division / proliferation of activated PBMC (in words) [1]: show anti-proliferative capacity
- TNF-alpha expression as compared to the control, 24 h [2]: 23%±10.6
- Ca2+ release in human primary T-cells (human primary T-cells): increasing Ca^2+ release
- clinical EAE score / symptoms ([3]; T20K 200 μg/100 μL/mouse i.p. on day -7, 0 or 7, vs naive group): delayed and minor symptoms of EAE
- prophylactic effect on clinical EAE score ([3]; mice treated seven days before EAE induction, Dunnett's test): demonstrate significantly the prophylactic effect
- NFATc1 signal in human T-cells (NFATc1 in human T-cells): reduced signal of NFATc1
- NFATc1 signal in mouse splenic T-cells [4]: reduced NFATc1 signal
